Earlier results, collected in US20240065977A1, “MYDRIATIC AND ANTI-MUSCARINIC AGENT COMPOSITION FOR OPHTHALMIC USE” (SENTISS PHARMA PRIVATE LIMITED, priority 2020, published 2024).
Like-named read-outs stand apart in the source and are kept apart here.

Tested on: pupil

## CN1[C@@H]2CC[C@H]1C[C@@H](OC(=O)C(O)c1ccccc1)C2 (stereo partly drawn) [Homatropine]
Concentration 2%-5%
  Mydriasis Peak: 40 to 60 min
  Mydriasis Recovery: 1 to 3 days

## CN1[C@@H]2CC[C@H]1C[C@@H](OC(=O)C(CO)c1ccccc1)C2 (stereo partly drawn) [Atropine]
Concentration 0.5%-3%
  Mydriasis Peak: 30 to 40 min
  Mydriasis Recovery: 7 to 12 days
Pupillary dilatation
  duration of action: ≥ 7 days
  onset of action: 40 min
